From ChEMBL document CHEMBL1132935, “Design and synthesis of aryloxyethyl thiocyanate derivatives as potent inhibitors of Trypanosoma cruzi proliferation” (J Med Chem, 2000)

Assays:
[1] = tested on: Trypanosoma cruzi; experiment: 50% inhibitory concentration against the growth of Trypanosoma cruzi (Epimastigotes); assay type: functional, organism-based
[2] = tested on: Trypanosoma cruzi; experiment: 90% inhibitory concentration against the growth of Trypanosoma cruzi (Epimastigotes); assay type: functional
[3] = tested on: Trypanosoma cruzi; experiment: 50% inhibitory concentration against the growth of intracellular Trypanosoma cruzi; assay type: functional, organism-based

SMILES | IC50 [1] | IC90 [2] | IC50 [3]
Cc1ccccc1Oc1ccc(OCCOC2CCCCO2)cc1 (stereo not drawn) | 143 µM |  | 
N#CSCCSc1ccc(Oc2ccccc2)cc1 | 0.87 µM | 32 µM | 
N#CSCCOc1ccc(Oc2ccccc2)cc1 |  | 3.5 µM | 16 µM
O=c1c2ccccc2oc2ccc(OCCOC3CCCCO3)cc12 (stereo not drawn) | > 60 µM |  | 
N#CSCCOc1ccc(Oc2ccccc2)cc1I | 1.8 µM | 23 µM | > 100 µM
c1ccc(Oc2ccc(COC3CCCCO3)cc2)cc1 (stereo not drawn) | 102 µM |  | 
N#CSCc1ccc(Oc2ccccc2)cc1 | 18.7 µM |  | 
Cc1cccc(C)c1Oc1ccc(OCCOC2CCCCO2)cc1 (stereo not drawn) | > 60 µM |  | 
N#CSCCNc1ccc(Oc2ccccc2)cc1 | 141 µM |  | 
N#CSCCOc1ccc(Cl)cc1Cl | 1 µM | 30 µM | > 100 µM
N#CSCCOc1ccc2oc3ccccc3c(=O)c2c1 | 54 µM |  | 
C[C@@H](COc1ccc(Oc2ccccc2)cc1)SC#N | 25 µM |  | 
Clc1ccc(OCCOC2CCCCO2)cc1 (stereo not drawn) | > 390 µM |  | 

The remaining lines, values ahead:

IC50 [1] | IC90 [2] | IC50 [3] | SMILES
45 µM |  |  | Ic1cc(Oc2ccccc2)ccc1OCCOC1CCCCO1 (stereo not drawn)
14.1 µM |  |  | N#CSCCOc1ccc(Cl)cc1
291 µM |  |  | c1ccc(Oc2ccc(SCCOC3CCCCO3)cc2)cc1 (stereo not drawn)
14.4 µM |  |  | CC(=O)N(CCSC#N)c1ccc(Oc2ccccc2)cc1
2.7 µM | 3.5 µM | 41.7 µM | Cc1ccccc1Oc1ccc(OCCSC#N)cc1
2.9 µM |  |  | N#CSCCOc1ccc(Oc2cccc(Br)c2)cc1
< 4 µM | 27 µM |  | N#CSCCOc1cccc(Br)c1
138 µM |  |  | Brc1cccc(Oc2ccc(OCCOC3CCCCO3)cc2)c1 (stereo not drawn)
104 µM |  |  | Brc1cccc(OCCOC2CCCCO2)c1 (stereo not drawn)
> 82 µM |  |  | C[C@H](COc1ccc(Oc2ccccc2)cc1)SC#N
277 µM |  |  | CC(=O)N(CCO)c1ccc(Oc2ccccc2)cc1
211 µM |  |  | CC(=O)N(CCOC1CCCCO1)c1ccc(Oc2ccccc2)cc1 (stereo not drawn)
24.5 µM |  |  | N#CSCCOc1ccc(Oc2ccccc2)cc1Cl
1.4 µM | 18 µM | 64.5 µM | N#CSCCOc1ccc(Oc2ccccc2)cc1Br
